According to patent publication US12642784B2, “ANAVEX2-73 for the treatment of genetic neurodevelopmental disorders” (ANAVEX LIFE SCIENCES CORP., priority 2019, dated 2026):

Assays:
[1] = test system: subject diagnosed with Rett Syndrome; test: Example 1: daily liquid formulation in a subject with Rett Syndrome, follow-up questionnaire; type: in vivo, human; details: 5 mL of 0.2 mg/mL liquid formulation daily, total daily dose 1 mg
Description: A subject diagnosed with Rett Syndrome was daily administered 5 mL of a liquid formulation containing A2-73 at a concentration of 0.2 mg/mL, for a total daily dose of 1 mg of […]2-73.

[2] = test system: glutamate and GABA biomarkers; test: Example 5: plasma glutamate and GABA biomarkers; type: in vivo, human; details: Week 0 vs. Week 7; Wilcoxon Z=−1.992, p (2-tailed)=0.046
From the text: In one aspect, the method further comprises measuring, or having measured or obtained a baseline plasma glutamate and/or gamma aminobutyric acid (GABA) level in the subject prior to treatment with ANAVEX2-73 as described herein, and measuring or having measured or obtained at least a second plasma glutamate and/or gamma aminobutyric acid (GABA) level following a period of treatment with ANAVEX2-73 as described herein. Measurement of a plasma glutamate and/or gamma aminobutyric acid (GABA) level comprises withdrawing a whole blood sample from the subject, separating the blood plasma from remaining whole blood components such as by centrifuging the sample, isolating the blood plasma, and measuring the amount of glutamate and/or gamma aminobutyric acid (GABA) in the blood plasma using any one of several techniques known in the art. […]
(§1) For efficacy, the following parameters were measured in the female subjects: Rett Syndrome Behavior Questionnaire (RSBQ), Clinical Global Impressions (CGI-I), hand behaviors (RSBQ), breathing problems (RSBQ), waking during sleep (RSBQ), and glutamate biomarker, and GABA biomarkers.
(§2) Evaluation of the efficacy was measured as a comparison from baseline (week 0), week 4, and to end of treatment (week 7). Blood plasma samples were analyzed at week 0 and at week 7 to measure the levels of glutamate and GABA biomarkers. […]

[3] = test system: healthy male volunteers; details: cited from earlier work
[4] = test system: female subjects diagnosed with Rett Syndrome; test: Example 5: 7-week treatment of Rett Syndrome subjects, RSBQ and CGI-I; type: in vivo, human
From the text: One useful measure of improvement for one or more symptoms of a genetic neurodevelopmental disorder may be determined using a behavioral questionnaire that interrogates a primary caregiver of a subject at multiple time points during a course of treatment, regarding multiple behavioral indicators of the disorder. For example, a Rett Syndrome Behavior Questionnaire (RSBQ) may comprise multiple, e.g., at least five but optionally 10 or more, such as 12, 15, 20, 25, 30, 35, 40, 45 or 50 or more behavioral indicators which ask for a caregiver's observations of the subject regarding the frequency of specific episodes or occurrences of each indicator. […]
Another useful measurement for one or more symptoms of a genetic neurodevelopmental disorder is a Clinical Global Impression-Improvement scale (CGI-I). This scale measures the improvement or worsening of the subject's condition relative to a baseline state before administration of the dosage form comprising a therapeutically acceptable amount of ANAVEX2-73, as assessed by one or more healthcare professionals. […]
as §1, §2

[5] = test system: subject, diagnosed with Rett Syndrome; test: Example 6: liquid formulation in a subject with Rett Syndrome; type: in vivo, human; details: 1 mL of liquid formulation (0.2 mg/mL)
Description: A subject, diagnosed with Rett Syndrome is administered 1 mL of a liquid formulation (0.2 mg/mL).

[6] = type: physicochemical
From the text: Dosage formulations used in the disclosed methods comprise a therapeutically effective amount of ANAVEX2-73, the crystalline HCl salt of tetrahydro-N,N-dimethyl-2,2-diphenyl-3-furanmethanamine, or tetrahydro-N,N-dimethyl-2,2-diphenyl-3-furanmethanamine hydrochloride (IUPAC name: 1-(2,2-diphenyloxolan-3-yl)-N,N-dimethylmethanamine hydrochloride). […] Thus ANAVEX2-73 (used herein to refer to the HCl salt or the free base) is highly amenable to incorporation in the dosage formulations disclosed herein. For example, ANAVEX2-73 as either the HCl salt or the free base has a relatively low molecular weight (<400 Da), and is thus well suited for transmucosal or transdermal delivery, or rapid oral delivery. ANAVEX2-73 has a pKa around 8-9, which also makes it well-suited for transmucosal delivery. Therapeutically effective doses of ANAVEX2-73 are well suited for various thin film formulations, including oral and transdermal thin film formulations.

[7] = single oral dose, healthy male volunteers

Structure (SMILES)	motor skills and cognition according to follow-up questionnaire [1]	levels of glutamate biomarker in plasma [2]	serious adverse events ([3]; single ascending oral dose, 22 healthy male volunteers)	maximum tolerable dose (MTD) [3, 7]	minimum intolerable dose (MID) [3, 7]	improvement in the RSBQ ([4]; all six subjects, week 0 to week 7, Wilcoxon Z=−2.207, p (2-tailed)=0.027)	RSBQ and CGI-I after 7 weeks ([4]; correlated, p=0.003)	parameters measured (FIG. 1, FIG. 2A-D, FIG. 3A-E) ([4]; orally administered liquid formulation, 7 weeks)	CGI-I index [5]	Rett Syndrome Behavior Questionnaire (RSBQ) [5]	solubility in organic solvents [6]
CN(C)CC1CCOC1(c1ccccc1)c1ccccc1.Cl (centres unmarked) [ANAVEX2-73, tetrahydro-N,N-dimethyl-2,2-diphenyl-3-furanmethanamine hydrochloride]	improvement	decreased significantly	No serious adverse events	55 mg	60 mg	over 30%	reduction	vast improvement	improvement	improvement	–
CN(C)CC1CCOC1(c1ccccc1)c1ccccc1 (centres unmarked) [free base form of ANAVEX2-73, tetrahydro-N,N-dimethyl-2,2-diphenyl-3-furanmethanamine]	–	–	–	–	–	–	–	–	–	–	soluble in almost all organic solvents
